Source: patent US11766451B2, “Utilizing polymers and antibiotics to enhance antimicrobial activity and inhibit antibiotic resistance” (International Business Machines Corporation, priority 2018, dated 2023)
Entries after “also recorded” stand apart in the source; their conditions may differ.

How the values were obtained:
[1] = system: E. coli; experiment: Checkerboard / broth microdilution MIC; type: cell-based, Escherichia coli
Text: To evaluate antibacterial activity of antimicrobial polymer-antibiotic 306 combination therapies, the checkerboard method was used to create chart 400. By using this method, the minimum inhibitory concentration (“MIC”) of antibiotics 306, antimicrobial polymers (e.g., characterized by the first chemical structure 100 and/or the second chemical structure 102), and/or antibiotics 306/antimicrobial polymers (e.g., characterized by the first chemical structure 100 and/or the second chemical structure 102) combination at varying polymer concentrations can be determined. MIC was measured based on the broth microdilution method. 50 microliters (“μL”) of the example polycarbonate 200 at a serious of concentrations (micrograms per milliliter (μg/mL)) was added into a 96-well plate. […] Microbes (e.g., S. aureus, A. baumannii, E. coli, and/or P. aeruginosa) at exponential growth phases were diluted with […] (“MHB”) to about 10^5 colony forming units (“CFU”) per milliliter (CFU/mL), and 100 μL of diluted microbes were added into each well of the 96-well plate with 100 μL of antimicrobial polymer-antibiotic 306 mixture. […] The concentration at which there was no bacterial growth observed by naked eyes or a microplate reader at 600 nanometers (nm) was recorded as the MIC. […]

[2] = system: A. baumannii (BAA-1709); experiment: Checkerboard / broth microdilution MIC; type: cell-based, Acinetobacter baumannii; settings: for Change of antibiotic MIC as polymer concentration increased from 1/16×MICp to ½×MICp: with example polycarbonate 200 (table 500); for MIC of rifampicin at 1/2 × MIC of adjuvant: rifampicin with the labelled adjuvant at 1/2 × its MIC; for MIC of rifampicin at 1/4 × MIC of adjuvant: rifampicin with the labelled adjuvant at 1/4 × its MIC; for MIC of rifampicin at 1/8 × MIC of adjuvant: rifampicin with the labelled adjuvant at 1/8 × its MIC
Text: To evaluate antibacterial activity of antimicrobial polymer-antibiotic 306 combination therapies, the checkerboard method was used to create chart 400. By using this method, the minimum inhibitory concentration (“MIC”) of antibiotics 306, antimicrobial polymers (e.g., characterized by the first chemical structure 100 and/or the second chemical structure 102), and/or antibiotics 306/antimicrobial polymers (e.g., characterized by the first chemical structure 100 and/or the second chemical structure 102) combination at varying polymer concentrations can be determined. MIC was measured based on the broth microdilution method. 50 microliters (“μL”) of the example polycarbonate 200 at a serious of concentrations (micrograms per milliliter (μg/mL)) was added into a 96-well plate. […] Microbes (e.g., S. aureus, A. baumannii, E. coli, and/or P. aeruginosa) at exponential growth phases were diluted with […] (“MHB”) to about 10^5 colony forming units (“CFU”) per milliliter (CFU/mL), and 100 μL of diluted microbes were added into each well of the 96-well plate with 100 μL of antimicrobial polymer-antibiotic 306 mixture. The 96-well plate was incubated at 37 degrees Celsius (“° C.”) under shaking of 100 revolutions per minute (“rpm”) for about 18 to 20 hours. The concentration at which there was no bacterial growth observed by naked eyes or a microplate reader at 600 nanometers (nm) was recorded as the MIC. The checkerboard experiments were performed three times for each antimicrobial polymer-antibiotic 306 combination.

[3] = system: A. baumannii BAA-1709; type: cell-based, Acinetobacter baumannii; settings: for MIC of pure antibiotic over 30 generations: antibiotic only; for Delay of resistance of the bacteria against the antibiotic: in the presence of example polycarbonate 200 at ¼×MICp
Method: To monitor development of antibiotic 306 resistance in A. baumannii, antibiotics 306 at sub-lethal doses were used in combination with the example polycarbonate 200 to repeatedly treat A. baumannii BAA-1709. With concentrations of the example polycarbonate 200 fixed at ¼ or ½×MIC, the MIC of antibiotics 306 was measured by the broth microdilution method. At half of the antibiotic 306 MIC, the survived bacteria, which reached logarithmic growth phase, were collected for MIC measurement of the subsequent passage. The development of antibiotic 306 resistance was monitored for 30 passages and the MIC of the antibiotics 306 at ¼ or ½×MIC of the antimicrobial polymer (e.g., characterized by the first chemical structure 100 and/or the second chemical structure 102) was recorded for each passage. The resistance development of antibiotics 306 only and polymer only was also evaluated over 30 passages.

[4] = system: A. baumannii strains; experiment: Concentrations (1/2 MIC, MBC) for 18 h bactericidal plate test; type: cell-based; settings: Acinetobacter baumannii; all the A. baumannii strains; used together with example polycarbonate 200 at ½ MIC; read-out: minimum bactericidal concentration (“MBC”)
Text: (§1) FIG. 13 illustrates a diagram of example, non-limiting table 1300 and/or table 1302, which can depict the synergistic effect of one or more combination therapies, which can comprise one or more antimicrobial polymers (e.g., characterized by the first chemical structure 100 and/or the second chemical structure 102) in combination with one or more antibiotics 306, against various bacteria (e.g., Gram-negative bacteria and/or Gram-positive bacteria) including antibiotic-resistant strains. Repetitive description of like elements employed in other embodiments described herein is omitted for sake of brevity.
(§2) Further, FIG. 13 illustrates a diagram of example, non-limiting photos 1304 of three-component plates with bacteria treated by example polycarbonate 200, rifampicin, and/or a combination thereof for 18 hours. […] The data and/or photos 1304 depicted in FIG. 13 can be representative of three biological replicates, with the “*” denoting antibiotic-resistant strains of bacteria.

[5] = system: K. pneumoniae; experiment: as above; type: cell-based; settings: Klebsiella pneumoniae, used together with example polycarbonate 200 at ½ MIC, read-out: minimum bactericidal concentration (“MBC”)
Text: as §1, §2

[6] = system: E. aerogenes; experiment: as above; type: cell-based; settings: Klebsiella aerogenes, used together with example polycarbonate 200 at ½ MIC, read-out: minimum bactericidal concentration (“MBC”)
Text: as §1, §2

[7] = system: antibiotic-resistant strains of bacteria (e.g., A. baumannii); experiment: MIC against susceptible and antibiotic-resistant strains (table 700); type: cell-based, Acinetobacter baumannii
Text: In addition to antibiotic-susceptible bacteria, antibiotic-resistant strains of bacteria (e.g., indicated with a star in FIG. 7) were also employed to study the effect of antibiotic 306/example polycarbonate 200 combination on antibacterial activity.

[8] = system: A. baumannii BAA-1709; experiment: Killing kinetics (CFU counting) under combination treatments; type: cell-based, Acinetobacter baumannii; settings: rifampicin 0.008 μg/mL plus the labelled adjuvant at ½×MIC; up to 24 h
Text: To compare the efficiency of an antimicrobial polymer/rifampicin combination and an antimicrobial polymer/polymyxin combination, the CFU of A. baumannii BAA-1709 under different combination treatments were studied. […] The results of CFU counting are presented as mean±standard deviation of triplicate samples.

[9] = system: A. baumannii (e.g., ATCC BAA-1709); experiment: Bacterial count after 18 hours of treatment; type: cell-based, Acinetobacter baumannii; settings: treatment for 18 hours; polymer 3.9 or 7.8 μg/mL (graph 1002)
Method: The results shown in graph 1002 were achieved after treatment for 18 hours.
Further, FIG. 11 illustrates a diagram of example, non-limiting graph 1102, graph 1110, and/or graph 1118, which can depict that one or more combination therapies comprising one or more antimicrobial polymers (e.g., characterized by the first chemical structure 100, such as example polycarbonate 200, and/or the second chemical structure 102) and one or more antibiotics 306 can show stronger synergistic bactericidal effect than traditional combination therapies as evidenced by the bacterial count after 18 hours of treating A. baumannii (e.g., ATCC BAA-1709).

[10] = repeated sub-MIC exposure, no polymer

## CC[C@H]1OC(=O)[C@H](C)[C@@H](O[C@H]2C[C@@](C)(OC)[C@@H](O)[C@H](C)O2)[C@H](C)[C@@H](O[C@@H]2O[C@H](C)C[C@H](N(C)C)[C@H]2O)[C@](C)(O)C[C@@H](C)CN(C)[C@H](C)[C@@H](O)[C@]1(C)O [azithromycin]
[1]
  Effect of example polycarbonate 200 on antibiotic potency: enhance the potency
[2]
  Change of antibiotic MIC as polymer concentration increased from 1/16×MICp to ½×MICp: significantly reduced
[3]
  MIC of pure antibiotic over 30 generations: increased
[3]; polymer fixed at ¼×MICp
  MIC of antibiotic over 30 generations in the presence of example polycarbonate 200 at ¼×MICp: did not change

## CC1(C)S[C@@H]2[C@H](NC(=O)Cc3ccccc3)C(=O)N2[C@H]1C(=O)O [Penicillin G, Benzylpenicillin]
[2]; antibiotic alone, no polymer
  MIC of antibiotics 306 w/o polymer: 62.5 µg/mL
[2]
  Change of antibiotic MIC as polymer concentration increased from 1/16×MICp to ½×MICp: significantly reduced
[2]; with example polyionene 206 at 1/2 × MICp (MICp 7.8 μg/mL)
  MIC of antibiotics 306 at 1/2 × MICp: 7.8 µg/mL
[2]; with example polyionene 206 at 1/4 × MICp (MICp 7.8 μg/mL)
  MIC of antibiotics 306 at 1/4 × MICp: 31.3 µg/mL
[2]; with example polyionene 206 at 1/8 × MICp (MICp 7.8 μg/mL)
  MIC of antibiotics 306 at 1/8 × MICp: 62.5 µg/mL
[2]; with example polyionene 206 at 1/16 × MICp (MICp 7.8 μg/mL)
  MIC of antibiotics 306 at 1/16 × MICp: 62.5 µg/mL
[3]
  MIC of pure antibiotic over 30 generations: increased
  Delay of resistance of the bacteria against the antibiotic: 22 generations
[3]; [10]
  MIC of pure antibiotic at generation 5: 125 µg/mL
  MIC of pure antibiotic at generation 30: 1000 µg/mL
[3]; starting value
  MIC of pure antibiotic before resistance evolution: 62.5 µg/mL

## CO[C@H]1/C=C/O[C@@]2(C)Oc3c(C)c(O)c4c(O)c(c(/C=N/N5CCN(C)CC5)c(O)c4c3C2=O)NC(=O)/C(C)=C\C=C\[C@H](C)[C@H](O)[C@@H](C)[C@@H](O)[C@@H](C)[C@H](OC(C)=O)[C@@H]1C [rifampicin]
[1]; with example polycarbonate 200 at ½×MICp
  MIC reduction at ½×MICp of the antimicrobial polymer: over 500 fold
[4]
  MBC: 0.015 µg/mL
[5]
  MBC: 0.5 µg/mL
[6]
  MBC: 2 µg/mL
[2]; with example polycarbonate 200
  MIC reduction compared with pure rifampicin: over 2000 folds
[2]; with example polycarbonate 200 at ¼×MICp (e.g., 4 μg/mL)
  MIC of antibiotic in the presence of the antimicrobial polymer at ¼×MICp: 0.13 µg/mL
[2]; with example polycarbonate 200 at ½×MICp (e.g., 8 μg/mL)
  MIC of antibiotic in the presence of the antimicrobial polymer at ½×MICp: 0.002 µg/mL
[3]
  Delay of resistance of the bacteria against the antibiotic: 17 generations
[7]; antibiotic-resistant strains, with example polycarbonate 200
  MIC of rifampicin at antimicrobial polymer concentration of ¼×MICp: 0.5 µg/mL
[7]; both susceptible and antibiotic-resistant A. baumannii strains
  MIC reduction of rifampicin with polycarbonates of first chemical structure 100: up to 2048 fold

## Polymyxin B
[2]
  MIC of rifampicin at 1/2 × MIC of adjuvant: 0.5 µg/mL
  MIC of rifampicin at 1/4 × MIC of adjuvant: 2.0 µg/mL
  MIC of rifampicin at 1/8 × MIC of adjuvant: 3.9 µg/mL
[8]
  Bactericidal activity of rifampicin combined with adjuvant (CFU over time): no bactericidal activity over 24 h; also recorded: no bactericidal effect up to 24 hours

## colistin
[2]
  MIC of rifampicin at 1/2 × MIC of adjuvant: 0.06 µg/mL
  MIC of rifampicin at 1/4 × MIC of adjuvant: 2.0 µg/mL
  MIC of rifampicin at 1/8 × MIC of adjuvant: 3.9 µg/mL
[8]
  Bactericidal activity of rifampicin combined with adjuvant (CFU over time): no bactericidal activity over 24 h; also recorded: no bactericidal effect up to 24 hours
[9]
  Effective dose of colistin as concentration of example polycarbonate 200 increases: reduced
